“Also recorded” adds a separate entry of the source. Where two headings read alike, the source gives them in different places.
How the values were obtained:
[1] = test system: P. aeruginosa PA14 biofilms; experiment: Anoxic survival (CFU) of electrode-attached wild type biofilms at poised potential with sub-MIC antibiotics; assay type: cell-based, P. aeruginosa UCBPP-PA14; conditions: for decrease in cell survival under PYO-reductive conditions compared with OC: −400 mV vs OC, 1 μg/mL meropenem or 4 μg/mL ciprofloxacin; for effect on wild type biofilms under PYO-reductive conditions (in words): anoxic, sub-MIC antibiotic
Protocol: (§1) Electrochemical reactors and biofilm growth. Double-jacketed electrochemical reactors (Pine Instruments, 250 ml, wide center port 29/26) were used with ITO-coated 0.2 mm thick boro-aluminosilicate glass slides (Delta Technologies, 24×60 mm, Rs=7-10Ω) as working electrodes, freshly sanded graphite rods (Alfa Aesar) as counter electrodes, and Ag/AgCl in 3M KCl reference electrodes (BASi). Silver epoxy (Electron Microscopy Sciences) was used to make electrical connection between insulated wire ([…]) and working electrode and was insulated using 5 Minute® expoxy (Devcon). Working electrodes were assembled within 5 hours of use. Reactors were sterilized by autoclaving without reference or working electrodes, which were sterilized by submerging in 10% bleach for 5 minutes or 30 seconds, respectively, and rinsed in sterile water. Individual mid-log liquid cultures (OD600 0.45-0.55) were used to inoculate sterile reactors containing 140 ml of MM (described above) with 0.1% (vol/vol) for each biological replicate. Antibiotics were not added at this point. Working electrodes were poised at either open circuit, +100 mV, or −400 mV vs. Ag/AgCl (+310 mV and −190 mV vs the standard hydrogen electrode, respectively). Reactors were aerated using an aquarium pump with a 0.2 μm filter (Thermo Scientific) and heated to 31° C. using a circulating water bath (Haake A 25, Thermo Scientific). Fresh medium was exchanged every 24 hours for 5 days. After 5 days of aerobic growth, working electrode-attached biofilms were rinsed in sterile medium to remove planktonic cells and transferred to sterile reactors with fresh MM previously flushed for 2 hours with N2 ultra-high purity gas (NRL supply store). For antibiotic exposure experiments, antibiotics were added to sterile media before flushing with N2. For PYO-addition experiments, 10 μM PYO (Cayman Chemical) was added to in the MM before flushing with N2. Working electrodes were poised to their corresponding potential and biofilms were incubated for an additional 72 hours under N2 flushing at 31° C.
Biofilm harvesting and processing. After 72 hours of incubation under anoxic conditions, electrode-attached biofilms were rinsed in sterile media. The biofilms within the bottom 3.12 cm^2 of each working electrode were scraped off using a cell scraper (Sarstedt) and resuspended in antibiotic-free MM. Serial dilutions were prepared in sterile antibiotic-free MM and plated on antibiotic-free LB. The rest of the electrode-attached biofilms were incubated at room temperature in freshly-made 2 μM TOTO-1 and 10 μM SYTO-60 (Invitrogen) in MM for 15 minutes and rinsed 2× in sterile MM for 15 minutes. Imaging was done with an upright Zeiss LSM 800 microscope with Airyscan and a 40× oil immersion lens. SYTO-60 was excited with a 561 nm; 0.20% laser and emission was recorded from 580-700 nm. TOTO-1 was excited with a 488 nm; 0.20% laser and emission was recorded from 490 to 580 nm.
In order to test the effect of antibiotic in combination with application of a difference in voltage to P. aenuginosa, sub-MICs of gentamicin, meropenem, ciprofloxacin, and colistin were added to anoxic survival reactors set up as described in Examples 1 and 2.

PA14 [2] = experiment: Redox cycles over 7 days and support of survival (Table 4); assay type: cell-based, P. aeruginosa
Description: (§2) Phenazines and other redox active compound in the sense of the disclosure can be further characterized by various electrical properties such as a standard electrode potential E° vs. NHE of −500 mV to 500 mV and other properties such as number of redox cycle over a certain period of time (e.g. number of days) as ability to support survival and susceptibility to reduction by enzymes and/or bacterial strains.

PA14 [3] = experiment: Reduction of redox-active compound by PA14 (Table 4); assay type: cell-based, P. aeruginosa
Description: as §2

[4] = oxidized form; literature values (footnotes a, c, d); cited from earlier work
[5] = Midpoint potential E1/2 by voltammetry vs Ag/AgCl (3M KCl); assay type: physicochemical; conditions: for E1/2 (vs. Ag/AgCl (3M KCl))/mV: Example 15 table
Protocol: The purified redox-active molecule can be dissolved in aqueous solution at appropriate concentration in the presence of supporting electrolyte and buffer to select the pH of measurement. For example, the redox-active molecule can be dissolved in 10 μM-10 mM concentrations in distilled, deionized water (DDW). The supporting electrolyte can be a salt such as NaCl or KCl at 0.01-0.5 M concentrations, for example, dissolved in DDW. The buffer can be 10 mM ammonium acetate/3-(N-morpholino)propanesulfonic acid at pH 7, or phosphate-buffered saline (PBS) at pH 7.4, or sodium acetate buffer at pH 5, or di-sodium hydrogen phosphate/potassium dihydrogen phosphate at pH 9, or boric acid/citric acid/trisodium phosphate for a wide range of pH values, for example.
Voltammetric methods are then used to characterize the electrochemical behavior of the redox-active molecule in such solution, with a potentiostat such as a Gamry PC4-300, using a three-electrode setup with working electrode (glassy carbon, or platinum, or gold), counter electrode (platinum wire) and reference electrode (Ag/AgCl (3M KCl), or SCE, or NHE; values are reported relative to Ag/AgCl (3M KCl) which has potential +197 mV vs. NHE at 298K).
For example, cyclic voltammetry may be used. In a cyclic voltammetry experiment phenazines will show a peak on the cathodic sweep (denoted Epc) corresponding to the reduction of the redox molecule.
The reverse, anodic sweep will show a peak (denoted Epa) corresponding to the re-oxidation of the redox molecule. If the electrode reaction is diffusion-controlled and reversible, the cathodic and anodic peak currents will be equal in area, and the mid-point between these peaks may be taken as the formal reduction potential of the redox molecule under the experimental conditions used. This value can interchangeably be referred to as the “midpoint potential” or “mid-peak potential”, denoted E1/2.
PYO was purified from aerobic bacterial cultures and was dissolved in 0.1 M KCl aqueous solution buffered with 10 mM ammonium acetate-3-(N-morpholino)propanesulfonic acid (5 mM each, pH 7) to yield a stock solution concentration of 829 μM PYO. Electrochemical measurements were performed with a Gamry PC4-300 potentiostat. A stationary gold disk electrode (BASi) was used as the working electrode, an Ag/AgCl electrode (RE-51, BASi) as the reference, and a straight platinum wire (BASi) was the counter electrode. Scans were performed between 20 and 500 mV/s in the potential range of around E1/2 (+/−300 mV), at 298 K.
As described in en.wikipedia.org/wiki/Nernst_equation, the Nernst equation relates E1/2 measured at pH 7 to the E1/2 at a different pH by:
[formula] • where E1/2 is in V • h is the number of protons transferred in the electrochemical reaction • e is the number of electrons transferred in the electrochemical reaction

[6] = from Wang and Newman (2008), cited from earlier work
[7] = Standard electrode potential E0' vs NHE of exemplary redox-active compounds (Table 4); assay type: physicochemical; conditions: measured in aqueous solution at pH 7 in this study (footnote b)
Description: as §2

[8] = vs NHE at pH7; cited from earlier work
Δphz* biofilms = experiment: Anoxic survival (CFU) of electrode-attached phenazine-deficient biofilms at poised potential; assay type: cell-based, P. aeruginosa UCBPP-PA14; Δphz*; conditions: 4 μg/mL gentamicin, −400 mV, absence of phenazines
Protocol: as §1, with “For PYO-addition experiments, 10 μM PYO (Cayman Chemical) was added to in the MM before flushing with N2. Working electrodes were poised to their corresponding potential and biofilms were incubated for an additional 72 hours under N2 flushing at 31° C.” left out
Biofilm harvesting and processing. […] SYTO-60 was excited with a 561 nm; 0.20% laser and emission was recorded from 580-700 nm. TOTO-1 was excited with a 488 nm; 0.20% laser and emission was recorded from 490 to 580 nm.

C[C@@H](O)[C@H]1C(=O)N2C(C(=O)O)=C(S[C@@H]3CN[C@H](C(=O)N(C)C)C3)[C@H](C)[C@H]12 [meropenem]
decrease in cell survival under PYO-reductive conditions compared with OC [1]: ~100 ×

C[n+]1ccc(-c2cc[n+](C)cc2)cc1 [Paraquat]
Support survival? (PA14 [2]): No | # of Redox cycles over 7 days (PA14 [2]): No cycle | Reduction by PA14? (PA14 [3]): No | E0' (vs. NHE) (mV) [4]: −446^c mV

O=C(O)c1cccc2nc3ccccc3nc12 [Phenazine-1-carboxylate (PCA), Phenazine-1-carboxylate]
Support survival? (PA14 [2]): Yes | # of Redox cycles over 7 days (PA14 [2]): 22 | Reduction by PA14? (PA14 [3]): Yes | E1/2 (vs. Ag/AgCl (3M KCl))/mV ([5]; pH 5): −185 mV | E1/2 (vs. Ag/AgCl (3M KCl))/mV ([5]; pH 6): −257 mV | E1/2 (vs. Ag/AgCl (3M KCl))/mV ([5]; pH 7): −313 mV | E0' (vs. NHE) (mV) [4]: −114^a mV | E1/2 (vs. Ag/AgCl (3M KCl))/mV ([6]; pH 5): −185 mV | E1/2 (vs. Ag/AgCl (3M KCl))/mV ([6]; pH 6): −257 mV | E1/2 (vs. Ag/AgCl (3M KCl))/mV ([6]; pH 7): −313 mV

O=C(O)Cc1cc(O)ccc1O [Homogentisic acid (HMA), Homogentisic acid]
E0' (vs. NHE) (mV) [7]: +306^b mV | Support survival? (PA14 [2]): No | # of Redox cycles over 7 days (PA14 [2]): No cycle

NC1=C(C(=O)O)C(=O)c2ccccc2C1=O [drawing 45]
E1/2 (vs. Ag/AgCl (3M KCl))/mV ([5]; pH 7): −250 mV

NAD/NADH
midpoint potential vs Ag/AgCl ([5]; aqueous environment at pH7): −600 mV | Redox potentials E (mV) [8]: −320 mV

Ubiquinone [Ubiquinone ox/red]
Redox potentials E (mV) [8]: +113 mV

NC(=O)c1cccc2nc3ccccc3nc12 [XXV, phenazine-1-carboxamide]
E1/2 (vs. Ag/AgCl (3M KCl))/mV ([5]; pH 5): −205 mV | E1/2 (vs. Ag/AgCl (3M KCl))/mV ([5]; pH 6): −278 mV | E1/2 (vs. Ag/AgCl (3M KCl))/mV ([5]; pH 7): −337 mV | E1/2 (vs. Ag/AgCl (3M KCl))/mV ([6]; pH 5): −205 mV | E1/2 (vs. Ag/AgCl (3M KCl))/mV ([6]; pH 6): −278 mV | E1/2 (vs. Ag/AgCl (3M KCl))/mV ([6]; pH 7): −337 mV

Oc1cccc2nc3ccccc3nc12 [1-Hydroxyphenazine (1-OHPHZ), 1-Hydroxyphenazine]
Support survival? (PA14 [2]): Yes | # of Redox cycles over 7 days (PA14 [2]): 14 | Reduction by PA14? (PA14 [3]): Yes | E1/2 (vs. Ag/AgCl (3M KCl))/mV ([5]; pH 5): −254 mV | E1/2 (vs. Ag/AgCl (3M KCl))/mV ([5]; pH 6): −323 mV | E1/2 (vs. Ag/AgCl (3M KCl))/mV ([5]; pH 7): −371 mV | E1/2 (vs. Ag/AgCl (3M KCl))/mV ([5]; pH 8): −442 mV | E0' (vs. NHE) (mV) [4]: −174^a mV | E1/2 (vs. Ag/AgCl (3M KCl))/mV ([6]; pH 5): −254 mV | E1/2 (vs. Ag/AgCl (3M KCl))/mV ([6]; pH 6): −323 mV | E1/2 (vs. Ag/AgCl (3M KCl))/mV ([6]; pH 7): −371 mV | E1/2 (vs. Ag/AgCl (3M KCl))/mV ([6]; pH 8): −442 mV

Menaquinone [Menaquinone ox/red]
Redox potentials E (mV) [8]: −75 mV

NC1=C(C(=O)O)C(=O)c2ccccc2C1=O [ACNQ ox/red, ACNQ]
Redox potentials E (mV) [8]: −71 mV

C[n+]1c2ccccc2nc2c(C(=O)O)cccc21
E1/2 (vs. Ag/AgCl (3M KCl))/mV ([5]; pH 7): 0 mV

gentamicin
CFU/cm^2 ± SE, −400 mV (PYO-reductive conditions) ([1]; wild type biofilms, 72 h anoxic, −400 mV vs Ag/AgCl, n=3, 4 μg/mL gentamicin, 1 μg/mL meropenem, 4 μg/mL ciprofloxacin): 21.4±10.7 CFU/cm^2 | effect on wild type biofilms under PYO-reductive conditions (in words) ([1]; −400 mV vs Ag/AgCl): almost fully eradicated WT biofilms; also recorded: almost completely eradicated wild type biofilms | effect on Δphz* biofilms under PYO-reductive conditions (in words) (Δphz* biofilms): did not affect Δphz* biofilms; also recorded: had no effect on the survival of Δphz* biofilms

O2/H2O
Redox potentials E (mV) [8]: +820 mV

O=C1c2ccc(S(=O)(=O)O)cc2C(=O)c2ccc(S(=O)(=O)O)cc21 [2,6-AQDS]
Support survival? (PA14 [2]): No | # of Redox cycles over 7 days (PA14 [2]): No cycle | Reduction by PA14? (PA14 [3]): Yes (very slowly) | Redox potentials E (mV) [8]: −184 mV | E0' (vs. NHE) (mV) [4]: −184^d mV

O=C1CCC(=O)N(O)CCC(O)CNC(=O)CCC(=O)N(O)CCC(O)CN1 (stereo not shown) [Alcaligin]
Redox potentials E (mV) [8]: −588 mV

O=C(O)c1cccc2nc3c(C(=O)O)cccc3nc12
E1/2 (vs. Ag/AgCl (3M KCl))/mV ([5]; pH 7): 0 mV

colistin
decrease in CFUs under PYO-oxidative conditions compared with nontreated biofilms ([1]; +100 mV, 10 μg/mL colistin vs no antibiotic): 10 × | effect on wild type biofilms under PYO-reductive conditions (in words) ([1]; −400 mV vs Ag/AgCl): did not show an additive effect

O=C(O)c1cn(C2CC2)c2cc(N3CCNCC3)c(F)cc2c1=O [ciprofloxacin]
decrease in cell survival under PYO-reductive conditions compared with OC [1]: ~100 ×

O=C1c2ccc(S(=O)(=O)O)cc2C(=O)C2C=CC(S(=O)(=O)O)=CC12 (stereo not shown)
E1/2 (vs. Ag/AgCl (3M KCl))/mV ([5]; pH 7): −381 mV

From patent US20250058002A1, “ELECTROCHEMICAL INHIBITION OF REDOX ACTIVE BACTERIA AND RELATED DEVICES, METHODS AND SYSTEMS” (priority 2023, published 2025)
